Data reported in patent US7056947B2, “Aza-peptide epoxides” (Georgia Tech Research Corp., priority 2002, dated 2006).

Tests used:
Assay type in all cases: biochemical
[1] = target: cathepsin B (Homo sapiens, UniProt P07858); test: Inhibition of cathepsin B, incubation method; settings: second-order rate constant, NI = no inhibition; for kinact/KI: pH 6, read-out: kobs/[I] cathepsin B
Excerpt: (§1) The release of 7-amino-4-methylcoumarin was monitored (λex=360 nm, λem=465 nm) using a Tecan Spectra Fluor microplate reader. Pseudo first-order inactivation rate constants were obtained from plots of In vt/vo versus time.

[2] = target: T1, papain (Carica papaya, UniProt P00784); test: Inhibition of papain, incubation method; settings: second-order rate constant, NI = no inhibition; for kinact/KI: pH 7.5, read-out: kobs/[I] papain
T1 sequence (P00784 134-345): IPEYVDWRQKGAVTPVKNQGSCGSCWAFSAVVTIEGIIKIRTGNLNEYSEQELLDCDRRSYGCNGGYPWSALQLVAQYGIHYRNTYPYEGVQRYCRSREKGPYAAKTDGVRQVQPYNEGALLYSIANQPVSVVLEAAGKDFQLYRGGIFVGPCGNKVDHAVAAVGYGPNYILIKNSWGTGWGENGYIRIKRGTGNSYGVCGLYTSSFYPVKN
Protocol: as §1
The incubation method was also used for papain. The inhibition incubation buffer for papain was 50 mM Hepes buffer at pH 7.5, containing 2.5 mM DTT and 2.5 mM EDTA. The assay used the substrate Z-Phe-Arg-pNA (53.7 μM) in the same buffer. The approximate concentration of papain added to the incubation buffer was 0.29 mg/mL. The release of p-nitroanilide was monitored at 405 nm with a Molecular Devices Thermomax microplate reader.

[3] = target: T2, caspase-3 (Homo sapiens, UniProt P42574); test: Caspase-3 progress curve assay; settings: substrate Z-DEVD-AFC; NI = no inhibition
T2 construct: made in house; host or cells: E. coli
T2 sequence (P42574 29-175 limits assumed): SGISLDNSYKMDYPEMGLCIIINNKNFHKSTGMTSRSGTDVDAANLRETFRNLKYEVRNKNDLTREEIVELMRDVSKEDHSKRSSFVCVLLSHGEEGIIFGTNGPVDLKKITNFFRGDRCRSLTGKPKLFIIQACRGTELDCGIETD
T2 sequence (P42574 176-277 limits assumed): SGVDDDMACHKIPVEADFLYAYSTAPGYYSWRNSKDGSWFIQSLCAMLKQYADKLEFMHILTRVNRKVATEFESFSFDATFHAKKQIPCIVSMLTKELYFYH
In short: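 E. coli-expressed caspases, pre-activated 10 min at 37° C with 10 mM DTT, were added to 100 μM Z-DEVD-AFC plus inhibitor in 50 mM Hepes, 100 mM NaCl, 0.1% CHAPS, 10% sucrose, 10 mM DTT, pH 7.4. AFC fluorescence (ex 400/em 505 nm) was followed; inhibition rates and equilibria came from progress curves.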

[4] = target: T3, caspase-1 (Homo sapiens, UniProt P29466, D381E); test: Caspase-1 progress curve assay; settings: D381E variant, substrate Ac-YVAD-AMC, 30° C.
T3 construct: His tag (N); made in house; host or cells: E. coli
T3 sequence (P29466 120-297 limits assumed): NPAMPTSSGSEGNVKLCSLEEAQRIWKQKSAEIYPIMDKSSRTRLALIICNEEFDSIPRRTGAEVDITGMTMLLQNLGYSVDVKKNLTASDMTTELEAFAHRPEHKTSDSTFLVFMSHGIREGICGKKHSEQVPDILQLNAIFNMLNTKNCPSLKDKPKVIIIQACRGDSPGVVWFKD
T3 sequence (P29466 317-404 D381E limits assumed): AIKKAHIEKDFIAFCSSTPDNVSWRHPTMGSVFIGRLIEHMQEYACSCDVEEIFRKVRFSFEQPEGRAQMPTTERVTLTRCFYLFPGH
In short: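 Autolysis-resistant D381E caspase-1 (E. coli, N-His tag), about 2 nM, added with 15 μM Ac-YVAD-AMC in HEPES/glycerol/EDTA buffer with 5 mM DTT to prewarmed compound at 30 °C. AMC fluorescence followed 900 s, triplicate curves fit to irreversible inactivation; kon (M^−1s^−1) from regression slope.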

[5] = system: calpain; test: Inhibition of calpain; settings: second-order rate constant; NI = no inhibition

CC(C)[C@H](NC(=O)CCc1ccccc1)C(=O)N[C@@H](C)C(=O)NN(CC(=O)O)C(=O)[C@@H]1O[C@H]1C(=O)OCc1ccccc1 (relative stereo) [23d (trans), trans-3-(N^2-(N-3-Phenylpropanoylvalylalanyl)-N^1-carboxylmethylhydrazinocarbonyl)oxirane-2-carboxylic Acid Benzyl Ester]
kinact/KI [1]: < 10 M⁻¹ s⁻¹ | kinact/KI [2]: < 10 M⁻¹ s⁻¹ | k2 caspase-3 [3]: 680 ± 140 M⁻¹ s⁻¹ | k2 caspase-1 [4]: 18070 ± 2625 M⁻¹ s⁻¹

CCOC(=O)[C@@H]1O[C@H]1C(=O)N(CCc1ccccc1)NC(=O)[C@H](CC(C)C)NC(C)=O (relative stereo) [Ac-Leu-AHph-trans-EP-COOEt, trans-3-(N^2-(N-Acetylleucyl)-N^1-phenylethylhydrazinocarbonyl)oxirane-2-carboxylic Acid Ethyl Ester]
kobs/[I] calpain [5]: 0.84 M⁻¹ s⁻¹ | kinact/KI [1]: 0.59 M⁻¹ s⁻¹ | kinact/KI [2]: 1.9 M⁻¹ s⁻¹

CCOC(=O)[C@@H]1O[C@H]1C(=O)N(CC(C)C)NC(=O)[C@H](CC(C)C)NC(C)=O (relative stereo) [Ac-Leu-ALeu-trans-EP-COOEt, trans-3-(N^2-(N-Acetylleucyl)-N^1-isobutylhydrazinocarbonyl)oxirane-2-carboxylic Acid Ethyl Ester]
kobs/[I] calpain [5]: 1.48 M⁻¹ s⁻¹ | kinact/KI [1]: 8 M⁻¹ s⁻¹ | kinact/KI [2]: 2.09 M⁻¹ s⁻¹

CCOC(=O)[C@@H]1O[C@H]1C(=O)N(NCc1ccccc1)C(=O)OCc1ccccc1 (relative stereo) [Cbz-APhe-trans-EP-COOEt, trans-3-(N^2-Benzyl-N^1-benzyloxycarbonylhydrazinocarbonyl)oxirane-2-carboxylic Acid Ethyl Ester]
kinact/KI [1]: 1.8 M⁻¹ s⁻¹ | kinact/KI [2]: 8.5 M⁻¹ s⁻¹

CCOC(=O)CN(NC(=O)[C@H](C)NC(=O)[C@H](C)NC(=O)OCc1ccccc1)C(=O)[C@@H]1O[C@H]1C(=O)OCC (relative stereo) [Cbz-Ala-Ala-NHN(CH2COOEt)-trans-EP-COOEt, trans-3-(N^2-(N-Benzyloxycarbonylalanylalanyl)-N^1-ethoxycarbonylmethylhydrazinocarbonyl)oxirane-2-carboxylic Acid Ethyl Ester]
kinact/KI [1]: 2.53 M⁻¹ s⁻¹ | kinact/KI [2]: 8.17 M⁻¹ s⁻¹

CCOC(=O)[C@@H]1O[C@H]1C(=O)N(CC)NC(=O)C(CC(C)C)NC(=O)OCc1ccccc1 (relative stereo) [Cbz-Leu-AAbu-trans-EP-COOEt, trans-3-(N^2-(N-Benzyloxycarbonyleucyl)-N^1-ethylhydrazinocarbonyl)oxirane-2-carboxylic Acid Ethyl Ester]
kobs/[I] calpain [5]: 1.98 M⁻¹ s⁻¹ | kobs/[I] papain [2]: 4.94 M⁻¹ s⁻¹

CCN(NC(=O)[C@H](CC(C)C)NC(=O)OCc1ccccc1)C(=O)[C@@H]1O[C@H]1C(=O)O (relative stereo) [Cbz-Leu-AAbu-trans-EP-COOH, trans-3-(N-(N-Benzyloxycarbonyleucyl)-N^1-ethylhydrazinocarbonyl)oxirane-2-carboxylic Acid]
kobs/[I] calpain [5]: 0.57 M⁻¹ s⁻¹ | kobs/[I] papain [2]: 1.47 M⁻¹ s⁻¹

CCOC(=O)[C@@H]1O[C@@H]1C(=O)N(CCc1ccccc1)NC(=O)[C@H](CC(C)C)NC(=O)OCc1ccccc1 (relative stereo) [Cbz-Leu-AHph-cis-EP-COOEt, cis-3-(N-(N-Benzyloxycarbonyleucyl)-N^1-phenylethylhydrazinocarbonyl)oxirane-2-carboxylic Acid Ethyl Ester]
kobs/[I] calpain [5]: 1.09 M⁻¹ s⁻¹ | kobs/[I] papain [2]: 1.03 M⁻¹ s⁻¹

CCOC(=O)[C@@H]1O[C@H]1C(=O)N(CC(C)C)NC(=O)[C@H](CC(C)C)NC(=O)[C@H](CC(C)C)NC(=O)OCc1ccccc1 (relative stereo) [Cbz-Leu-Leu-ALeu-trans-EP-COOEt, trans-3-(N^2-(N-Benzyloxycarbonylleucylleucyl)-N^1-isobutylhydrazinocarbonyl)oxirane-2-carboxylic Acid Ethyl Ester]
kobs/[I] calpain [5]: 2.65 M⁻¹ s⁻¹ | kinact/KI [2]: 34.8 M⁻¹ s⁻¹

CCOC(=O)[C@@H]1O[C@H]1C(=O)N(CCC(N)=O)NC(=O)[C@H](Cc1ccccc1)NC(=O)[C@H](CC(C)C)NC(=O)OCc1ccccc1 (relative stereo) [Cbz-Leu-Phe-AGln-trans-EP-COOEt, trans-3-(N^2-(N-Benzyloxycarbonylleucylphenylalanyl)-N^1-carbamoylethylhydrazinocarbonyl)oxirane-2-carboxylic Acid Ethyl Ester]
kinact/KI [1]: 1.3 M⁻¹ s⁻¹ | kinact/KI [2]: 0.9 M⁻¹ s⁻¹

CCOC(=O)[C@@H]1O[C@H]1C(=O)N(CC(C)C)NC(=O)[C@H](Cc1ccccc1)NC(=O)OCc1ccccc1 (relative stereo) [Cbz-Phe-ALeu-trans-EP-COOEt, trans-3-(N^2-(N-3-Benzyloxyphenylalanyl)-N^1-isobutylhydrazinocarbonyl)oxirane-2-carboxylic Acid Ethyl Ester]
kobs/[I] cathepsin B [1]: 3.61 M⁻¹ s⁻¹ | kobs/[I] papain [2]: 0.91 M⁻¹ s⁻¹

CCOC(=O)[C@@H]1O[C@H]1C(=O)N(CC(C)C)NC(=O)C(Cc1ccc2ccccc2c1)NC(=O)CCC(=O)O (relative stereo) [Suc-Np2-ALeu-trans-EP-COOEt, trans-3-(N^2-(N-Succinyl-2-naphthylalanyl)-N^1-isobutylhydrazinocarbonyl)oxirane-2-carboxylic Acid Ethyl Ester]
kobs/[I] cathepsin B [1]: 0.8 M⁻¹ s⁻¹ | kobs/[I] papain [2]: 1.39 M⁻¹ s⁻¹

CC(C)[C@H](NC(=O)CCc1ccccc1)C(=O)N[C@@H](C)C(=O)NN(CC(=O)O)C(=O)[C@H]1O[C@@H]1C(=O)OCc1ccccc1 [23d (S,S)]
kobs/[I] cathepsin B [1]: 0.81 M⁻¹ s⁻¹ | k2 caspase-3 [3]: 1470 ± 40 M⁻¹ s⁻¹ | k2 caspase-1 [4]: 52140 ± 5295 M⁻¹ s⁻¹

CCOC(=O)[C@@H]1O[C@H]1C(=O)N(CCc1ccccc1)NC(=O)[C@H](CC(C)C)NC(=O)OCc1ccccc1 [Cbz-Leu-AHph-(2R, 3R)-EP-COOEt, (2R,3R)-3-(N^2-(N-Benzyloxycarbonyleucyl)-N^1-phenylethylhydrazinocarbonyl)oxirane-2-carboxylic Acid Ethyl Ester]
kobs/[I] calpain [5]: 2.12 M⁻¹ s⁻¹ | kobs/[I] papain [2]: 2.16 M⁻¹ s⁻¹

CC(C)C[C@H](NC(=O)OCc1ccccc1)C(=O)NN(CCc1ccccc1)C(=O)[C@H]1O[C@@H]1C(=O)O [Cbz-Leu-AHph-(2S, 3S)-EP-COOH, (2S,3S)-3-(N^2-(N-Benzyloxycarbonyleucyl)-N^1-phenylethylhydrazinocarbonyl)oxirane-2-carboxylic Acid]
kobs/[I] calpain [5]: 2.12 M⁻¹ s⁻¹

CCOC(=O)[C@@H]1O[C@H]1C(=O)N(CC(C)C)NC(=O)C(CC(C)C)NC(=O)OCc1ccccc1 (stereo partly drawn) [Cbz-Leu-ALeu-(2R, 3R)-EP-COOEt, (2R,3R)-3-(N^2-(N-Benzyloxycarbonyleucyl)-N^1-isobutylhydrazinocarbonyl)oxirane-2-carboxylic Acid Ethyl Ester]
kobs/[I] calpain [5]: 1.45 M⁻¹ s⁻¹ | kobs/[I] papain [2]: 6.70 M⁻¹ s⁻¹

CCOC(=O)[C@H]1O[C@@H]1C(=O)N(CCC(N)=O)NC(=O)[C@H](Cc1ccccc1)NC(=O)[C@H](CC(C)C)NC(=O)OCc1ccccc1 [Cbz-Leu-Phe-AGln-(2S, 3S)-EP-COOEt, (2S,3S)-3-(N^2-(N-Benzyloxycarbonylleucylphenylalanyl)-N^1-carbamoylethylhydrazinocarbonyl)oxirane-2-carboxylic Acid Ethyl Ester]
kinact/KI [1]: 4.73 M⁻¹ s⁻¹
